Source: patent US3954733A, “Naphthyridine-3-carboxamido-benzylpenicillins and salts thereof” (Sumitomo Chemical Company, Limited, priority 1973, dated 1976)
In brackets after ≈: the same amount, converted by molar mass.

What was measured:
Pseudomonas = settings: known penicillins and N-acyl ampicillins; cited from earlier work
[1] = tested on: gram-positive and gram-negative bacteria; settings: known penicillins and N-acyl ampicillins; cited from earlier work
Proteus miravilis GN2425 = experiment: minimal inhibitory concentration, agar dilution method; type: cell-based
Proteus vulgaris HV19 = experiment: as above; type: cell-based
Escherichia coli NIHJ = experiment: as above; type: cell-based
From the text: (§1) When determined according to the agar dilution method, the penicillins (I) afford the minimal inhibitory concentrations against test microorganisms as shown in Table 2.

[2] = tested on: Staphylococcus aureus 209P; experiment: as above; type: cell-based
From the text: as §1

[3] = tested on: Pseudomonas aeruginosa 104; experiment: as above; type: cell-based
From the text: as §1

[4] = tested on: Klebsiella pneumoniae PCI602; experiment: as above; type: cell-based
From the text: as §1

| Compound | antimicrobial activity against Pseudomonas (Pseudomonas) | growth inhibition / antimicrobial activity against gram-positive and gram-negative bacteria [1] | MIC (Proteus miravilis GN2425) [µg/mL] | MIC (Proteus vulgaris HV19) [µg/mL] | MIC (Escherichia coli NIHJ) [µg/mL] | MIC [2] [µg/mL] | MIC [3] [µg/mL] | MIC [4] [µg/mL] |
| --- | --- | --- | --- | --- | --- | --- | --- | --- |
| 6-(α-amino-isothiazolylacetamido)penicillanic acid | do not exert any appreciable antimicrobial activity against Pseudomonas | inhibit the growth of various gram-positive and gram-negative bacteria |  |  |  |  |  |  |
| 6-(α-amino-thienylacetamido)penicillanic acid | do not exert any appreciable antimicrobial activity against Pseudomonas | inhibit the growth of various gram-positive and gram-negative bacteria |  |  |  |  |  |  |
| CC1(C)S[C@@H]2C(NC(=O)C(N)c3ccc(O)cc3)C(=O)N2[C@H]1C(=O)O (stereo partly drawn) [Amoxycillin, 6-(α-amino-p-hydroxyphenylacetamido)penicillanic acid, reference compound] | do not exert any appreciable antimicrobial activity against Pseudomonas | inhibit the growth of various gram-positive and gram-negative bacteria | 3.13 (≈ 8.57 µM) | 12.5 (≈ 34.2 µM) | 12.5 (≈ 34.2 µM) | 0.2 (≈ 0.547 µM) | > 200 |  |
| CC1(C)S[C@@H]2C(NC(=O)C(N)c3ccccc3)C(=O)N2[C@H]1C(=O)O (stereo partly drawn) [Ampicillin, 6-(α-amino-phenylacetamido)penicillanic acid, reference compound] |  | inhibit the growth of various gram-positive and gram-negative bacteria |  |  | 6.26 (≈ 17.9 µM) | 0.1 (≈ 0.286 µM) |  |  |
| CC1(C)S[C@@H]2[C@H](NC(=O)C3(N)CCCCC3)C(=O)N2[C@H]1C(=O)O [Cyclacillin, 6-(1-amino-cyclohexane)carboxamidopenicillanic acid] | do not exert any appreciable antimicrobial activity against Pseudomonas | inhibit the growth of various gram-positive and gram-negative bacteria |  |  |  |  |  |  |
| CC1(C)S[C@@H]2[C@H](NC(=O)[C@H](N)C3=CCC=CC3)C(=O)N2[C@H]1C(=O)O [Epicillin, 6-[α-amino-2-(1,4-hexadienylacetamido)]penicillanic acid] | do not exert any appreciable antimicrobial activity against Pseudomonas | inhibit the growth of various gram-positive and gram-negative bacteria |  |  |  |  |  |  |
| CCOC(=O)Oc1ccc([C@@H](NC(=O)c2cnc3cn[nH]c3c2O)C(=O)N[C@@H]2C(=O)N3[C@@H]2SC(C)(C)[C@@H]3C(=O)O)cc1 [Example 33] |  |  | 3.13 (≈ 5.23 µM) | 0.1 (≈ 0.167 µM) | 3.13 (≈ 5.23 µM) | 0.78 (≈ 1.3 µM) | 6.25 (≈ 10.4 µM) |  |
| CC1(C)S[C@@H]2[C@H](NC(=O)[C@H](NC(=O)c3cnc4cncnc4c3O)c3ccc(O)cc3)C(=O)N2[C@H]1C(=O)O [Example 34] |  |  | 1.56 (≈ 2.9 µM) | 0.05 (≈ 0.0928 µM) | 1.56 (≈ 2.9 µM) | 0.78 (≈ 1.45 µM) | 1.56 (≈ 2.9 µM) |  |
| Cc1nc(C)c2ncc(C(=O)N[C@@H](C(=O)N[C@@H]3C(=O)N4[C@@H]3SC(C)(C)[C@@H]4C(=O)O)c3ccc(O)cc3)c(O)c2n1 [Example 35] |  |  | 1.56 (≈ 2.75 µM) | 0.025 (≈ 0.0441 µM) | 1.56 (≈ 2.75 µM) | 0.78 (≈ 1.38 µM) | 1.56 (≈ 2.75 µM) |  |
| CCOC(=O)Oc1ccc([C@@H](NC(=O)c2cnc3c(OC)nc(OC)nc3c2O)C(=O)N[C@@H]2C(=O)N3[C@@H]2SC(C)(C)[C@@H]3C(=O)O)cc1 [Example 36] |  |  | 3.13 (≈ 4.67 µM) | 0.05 (≈ 0.0746 µM) | 3.13 (≈ 4.67 µM) | 0.78 (≈ 1.16 µM) | 3.13 (≈ 4.67 µM) |  |
| CCOC(=O)Oc1ccc([C@@H](NC(=O)c2cnc3cccnc3c2OC(=O)OCC)C(=O)N[C@@H]2C(=O)N3[C@@H]2SC(C)(C)[C@@H]3C(=O)O)cc1 [Example 37] |  |  | 1.56 (≈ 2.29 µM) | 0.025 (≈ 0.0367 µM) | 1.56 (≈ 2.29 µM) | 0.78 (≈ 1.14 µM) | 1.56 (≈ 2.29 µM) |  |
| CCOC(=O)Oc1ccc([C@@H](NC(=O)c2cnc3cccnc3c2S)C(=O)N[C@@H]2C(=O)N3[C@@H]2SC(C)(C)[C@@H]3C(=O)O)cc1 [Example 39] |  |  | 1.56 (≈ 2.49 µM) | 0.05 (≈ 0.0799 µM) | 1.56 (≈ 2.49 µM) | 0.78 (≈ 1.25 µM) | 1.56 (≈ 2.49 µM) |  |
| CC1(C)S[C@@H]2[C@H](NC(=O)C(NC(=O)c3cnc4cccnc4c3S)c3cc(Cl)c(O)c(Cl)c3)C(=O)N2[C@H]1C(=O)O (stereo partly shown) [Example 40] |  |  | 6.25 (≈ 10 µM) | 0.2 (≈ 0.321 µM) | 12.5 (≈ 20.1 µM) | 1.56 (≈ 2.51 µM) | 6.25 (≈ 10 µM) |  |
| COc1cnc2c(O)c(C(=O)N[C@@H](C(=O)N[C@@H]3C(=O)N4[C@@H]3SC(C)(C)[C@@H]4C(=O)O)c3ccc(O)cc3)cnc2n1 [Example 41] |  |  | 6.25 (≈ 11 µM) | 0.2 (≈ 0.352 µM) | 6.25 (≈ 11 µM) | 1.56 (≈ 2.74 µM) | 3.13 (≈ 5.51 µM) |  |
| CCOC(=O)Oc1ccc([C@@H](NC(=O)c2cnc3scnc3c2O)C(=O)N[C@@H]2C(=O)N3[C@@H]2SC(C)(C)[C@@H]3C(=O)O)cc1 [Example 42] |  |  | 6.25 (≈ 10.2 µM) | 0.2 (≈ 0.325 µM) | 3.13 (≈ 5.08 µM) | 0.78 (≈ 1.27 µM) | 6.25 (≈ 10.2 µM) |  |
| CC1(C)S[C@@H]2[C@H](NC(=O)[C@H](NC(=O)c3cnc4cccnc4c3S)c3ccc(O)cc3)C(=O)N2[C@H]1C(=O)O [Example 43] |  |  | 1.56 (≈ 2.82 µM) | 0.025 (≈ 0.0452 µM) | 1.56 (≈ 2.82 µM) | 0.78 (≈ 1.41 µM) | 1.56 (≈ 2.82 µM) |  |
| CC1(C)S[C@@H]2[C@H](NC(=O)C(NC(=O)c3ccccn3)c3ccccc3)C(=O)N2[C@H]1C(=O)O (stereo partly shown) [R, reference compound] |  |  | 50 (≈ 110 µM) |  | 100 (≈ 220 µM) | 0.78 (≈ 1.72 µM) | 50 (≈ 110 µM) | 50 (≈ 110 µM) |
